Four molecules from US20160324981A1, “LIVER X RECEPTOR AGONISTS AND USES THEREOF” (The California Institute for Biomedical Research, priority 2015, published 2016) can be followed below.

One test concerns the target T1, LXR-α (Homo sapiens, UniProt Q13133).
T1 construct: purchased Life Technologies PV4655
T1 sequence (Q13133 209-447 limits assumed): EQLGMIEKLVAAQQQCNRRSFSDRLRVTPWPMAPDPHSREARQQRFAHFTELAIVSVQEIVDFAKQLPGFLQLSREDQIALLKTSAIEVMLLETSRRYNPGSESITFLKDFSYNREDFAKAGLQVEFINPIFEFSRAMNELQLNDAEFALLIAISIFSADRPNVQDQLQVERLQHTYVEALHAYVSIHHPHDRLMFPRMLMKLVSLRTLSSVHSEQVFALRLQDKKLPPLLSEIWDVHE
The experiment in a line: LanthaScreen TR-FRET LXR alpha Coactivator binding assay. The conditions noted are these: EC50 (AC50) from fitted curve, read-out: binding affinity for LXR-α. (TR-FRET usually uses a lanthanide donor and a delayed reading to cut background.)

In a further test the target is T2, LXR-β (Homo sapiens, UniProt P55055).
T2 construct: purchased Life Technologies PV4658
T2 sequence (P55055 222-460 limits assumed): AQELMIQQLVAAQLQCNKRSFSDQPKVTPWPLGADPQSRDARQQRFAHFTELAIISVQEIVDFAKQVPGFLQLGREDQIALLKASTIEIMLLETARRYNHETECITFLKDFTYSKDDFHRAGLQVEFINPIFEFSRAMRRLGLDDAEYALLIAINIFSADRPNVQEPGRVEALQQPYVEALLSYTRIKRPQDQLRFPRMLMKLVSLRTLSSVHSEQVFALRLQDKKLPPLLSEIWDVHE
In words: LanthaScreen TR-FRET LXR beta Coactivator binding assay. The following applies: EC50 (AC50) from fitted curve, read-out: binding affinity for LXR-β.

The test system of test [1] is LXR-α transcriptional response element. The experiment in a line: In vitro LXR transactivation (luciferase reporter) assay in HepG2 cells. It is filed as cell-based. The following applies: 24 hours, presence or absence of 10% human AB serum. On the procedure:
(§1) Next, the in vitro activity of the anti-CD11a IgGX-CatB-LXR agonist was evaluated using an LXR-driven luciferase stably incorporated into THP-1 and HepG2 cells. This vector encodes the firefly luciferase reporter gene under the control of a CMV promoter and tandem repeats of the LXR-α transcriptional response element. […] Cells were then treated with ONE-Glo and luminescence was read on an Envision plate reader.
(§2) THP-1 cells and HepG2 cells (ATCC) were seeded at 0.6×10^6 cells/well in Opti-MEM media in a 6-well plate and allowed to incubate overnight at 37° C. Afterwards, 50 μL of Cignal lenti LXR-α luciferase reporter (cat no: CLS-7041L, Qiagen) was added to the wells with gentle mixing. After 48 h, the media was changed to completed growth media that was supplemented with 1 μg/mL puromycin. After 24 h, positively transfected cells were cultured for one week in puromycin-containing media.
(In a reporter assay the amount or activity of a reporter protein is the signal.)

For test [2] the test system is unchanged. The experiment in a line: In vitro LXR transactivation (luciferase reporter) assay in THP-1 cells. It is filed as cell-based. The following applies: Homo sapiens, 24 hours, read-out: EC50 (LXR agonist activity). How it is done: as §1, §2
Test [3] has as its target T3, CD11a (alpha-chain component of lymphocyte function-associated antigen 1, LFA-1) on human THP-1 … (human, UniProt P20701 26-1170).
T3 construct: whole, on cells; Endogenous on THP-1 cells, where it stands with its partner chain in LFA-1; also called LFA-1 alpha chain
In words: flow cytometry on THP-1 cells in the presence of Fc block. On the procedure:
Cells were incubated either with 2 nM of the dye-conjugated antibodies or with increasing concentrations of antibody (0-50 nM, right) for 1 h at 4° C. in the presence of Fc block (Human Fc block, BD Biosciences).
Because monocytes/macrophages have Fcγ receptors, the binding in the presence of an Fc blocking reagent was also examined (BD biosciences). […] Furthermore, binding of anti-Her2 to THP-1 cells at different concentrations, with or without Fc block treatment was performed (FIG. 9B).
A general note: In flow cytometry, cells or beads pass a laser one at a time.

T3 sequence (P20701 26-1170): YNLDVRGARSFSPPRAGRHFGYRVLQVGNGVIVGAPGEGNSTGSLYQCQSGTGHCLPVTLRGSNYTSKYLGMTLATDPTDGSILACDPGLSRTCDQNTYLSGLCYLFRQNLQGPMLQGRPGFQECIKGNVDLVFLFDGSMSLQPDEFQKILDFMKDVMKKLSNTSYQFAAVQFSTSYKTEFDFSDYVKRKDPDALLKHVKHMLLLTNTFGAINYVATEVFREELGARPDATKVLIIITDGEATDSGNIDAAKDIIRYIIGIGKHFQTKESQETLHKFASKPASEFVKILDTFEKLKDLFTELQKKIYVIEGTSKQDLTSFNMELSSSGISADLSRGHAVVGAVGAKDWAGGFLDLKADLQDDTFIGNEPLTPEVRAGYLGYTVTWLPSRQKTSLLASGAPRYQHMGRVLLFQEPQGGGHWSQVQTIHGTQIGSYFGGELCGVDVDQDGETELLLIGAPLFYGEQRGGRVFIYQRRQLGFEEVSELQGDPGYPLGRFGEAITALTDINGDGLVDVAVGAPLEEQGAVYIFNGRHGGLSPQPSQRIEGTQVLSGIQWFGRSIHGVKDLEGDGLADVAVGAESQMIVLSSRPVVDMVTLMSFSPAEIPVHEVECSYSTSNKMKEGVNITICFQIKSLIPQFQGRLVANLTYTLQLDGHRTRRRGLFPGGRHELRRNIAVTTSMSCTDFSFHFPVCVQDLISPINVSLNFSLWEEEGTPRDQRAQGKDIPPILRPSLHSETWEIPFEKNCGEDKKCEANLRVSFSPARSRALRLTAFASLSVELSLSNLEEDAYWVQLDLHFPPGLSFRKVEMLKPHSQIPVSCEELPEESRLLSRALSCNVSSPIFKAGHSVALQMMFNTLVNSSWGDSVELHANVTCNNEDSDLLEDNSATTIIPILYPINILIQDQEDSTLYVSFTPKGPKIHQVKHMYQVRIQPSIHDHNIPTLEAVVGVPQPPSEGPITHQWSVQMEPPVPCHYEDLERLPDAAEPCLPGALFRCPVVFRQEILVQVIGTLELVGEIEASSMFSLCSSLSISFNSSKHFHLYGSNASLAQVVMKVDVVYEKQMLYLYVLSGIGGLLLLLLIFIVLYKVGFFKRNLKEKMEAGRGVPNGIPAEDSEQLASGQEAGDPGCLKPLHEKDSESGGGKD

As to `O=C(O)Cc1cccc(OCCCN(Cc2cccc(C(F)(F)F)c2Cl)CC(c2ccccc2)c2ccccc2)c1` [compound 1, GW3965, reference compound], the EC50 was found to be 1.1 nM at LXR-α and 0.5 nM at LXR-β.

Take `O=S(=O)(c1ccccc1)N(CC(F)(F)F)c1ccc(C(O)(C(F)(F)F)C(F)(F)F)cc1` [compound 2, T0901317]: in test [1], the “LXR activation in HepG2 cells” value is recorded as “equipotent in these cells relative to THP-1”. The EC50 in test [2] is 79 ± 1.1 nM.

On to `CCc1cnc2c(C(F)(F)F)cccc2c1-c1cccc(Oc2cccc(S(=O)(=O)N(C)CCN)c2)c1` [compound 3], for which the EC50 on LXR-α stood at 1.5 nM; on LXR-β, 12 nM.

B1: anti-CD11a A122pAcF IgG conjugated to Alexa Fluor 488 (anti-CD11a IgGX-AF488) (antibody, V domains shown)
VH: EVQLVESGGGLVQPGGSLRLSCAASGYSFTGHWMNWVRQAPGKGLEWVGMIHPSDSETRYNQKFKDRFTISVDKSKNTLYLQMNSLRAEDTAVYYCARGIYFYGTTYFDYWGQGTLVTVSS
VL: DIQMTQSPSSLSASVGDRVTITCRASKTISKYLAWYQQKPGKAPKLLIYSGSTLQSGVPSRFSGSGSGTDFTLTISSLQPEDFATYYCQQHNEYPLTFGQGTKVEIKR
modifications: para-acetylphenylalanine (pAcF) at position A122 (the X in SEQ ID NO 10), oxime-linked to aminooxy-Alexa Fluor 488
notes: Humanized monoclonal anti-CD11a IgG made in CHO cells; The unnatural amino acid pAcF sits at heavy chain position A122; also called anti-CD11a pAcF IgGX
B1: in test [3], the Kd (in general, the free concentration of one partner at which half of the binding sites on the other are occupied at equilibrium, for simple one-to-one binding) is about 0.5 nM.
